Measured values as given in the NIST ThermoML archive (doi:10.1016/j.fluid.2016.01.043).
Numbers after ± are expanded uncertainties.

Key:
[1] = mn = molality of the nth substance listed, in mol/kg; conditions: 101 kPa, Liquid; for electrical conductivity: Frequency=0 MHz, Direct current cell with electrodes; for viscosity: Cone and plate viscometry
[2] = for viscosity / electrical conductivity: 101 kPa, Liquid; for viscosity: Cone and plate viscometry; for electrical conductivity: Frequency=0 MHz, Direct current cell with electrodes

**Q.** Which electrical conductivity ([1]; 293.15 K, m1 = 0.08) does the source give for `[F][Ta]([F])([F])([F])[F]` [Tantalum fluoride] + CCCC[N+]1(C)CCCC1.O=S(=O)([N-]S(=O)(=O)C(F)(F)F)C(F)(F)F here?
**A.** 0.24 ± 0.01 S/m

**Q.** What about the electrical conductivity ([1]; 293.15 K, m1 = 0.17) of the same compound?
**A.** 0.23 ± 0.01 S/m

**Q.** What about the electrical conductivity ([1]; 293.15 K, m1 = 0.35) of the same compound?
**A.** 0.23 ± 0.01 S/m

**Q.** What about the electrical conductivity ([1]; 293.15 K, m1 = 0.7) of the same compound?
**A.** 0.22 ± 0.01 S/m

**Q.** What about the electrical conductivity ([1]; 293.15 K, m1 = 1.41) of the same compound?
**A.** 0.22 ± 0.01 S/m

**Q.** And the viscosity ([1]; 303.15 K, m1 = 0.08)?
**A.** 71 ± 35 mPa·s

**Q.** What about the viscosity ([1]; 303.15 K, m1 = 0.17) of the same compound?
**A.** 73 ± 36 mPa·s

**Q.** What about the viscosity ([1]; 303.15 K, m1 = 0.35) of the same compound?
**A.** 77 ± 38 mPa·s

**Q.** What about the viscosity ([1]; 303.15 K, m1 = 0.7) of the same compound?
**A.** 81 ± 40 mPa·s

**Q.** What about the viscosity ([1]; 303.15 K, m1 = 1.41) of the same compound?
**A.** 87 ± 43 mPa·s

**Q.** What about the viscosity ([1]; 312.17 K, m1 = 0.08) of the same compound?
**A.** 51 ± 25 mPa·s

**Q.** What about the viscosity ([1]; 312.17 K, m1 = 0.17) of the same compound?
**A.** 52 mPa·s

**Q.** And the viscosity ([1]; 312.17 K, m1 = 0.35)?
**A.** 56 mPa·s

**Q.** And the viscosity ([1]; 312.17 K, m1 = 0.7)?
**A.** 59 ± 29 mPa·s

**Q.** And the viscosity ([1]; 312.17 K, m1 = 1.41)?
**A.** 62 mPa·s

**Q.** And the viscosity ([1]; 321.22 K, m1 = 0.08)?
**A.** 38 mPa·s

**Q.** And the viscosity ([1]; 321.22 K, m1 = 0.17)?
**A.** 40 mPa·s

**Q.** And the viscosity ([1]; 321.22 K, m1 = 0.35)?
**A.** 41 ± 20 mPa·s

**Q.** What about the viscosity ([1]; 321.22 K, m1 = 0.7) of the same compound?
**A.** 44 mPa·s

**Q.** What about the viscosity ([1]; 321.22 K, m1 = 1.41) of the same compound?
**A.** 47 ± 23 mPa·s

**Q.** And the viscosity ([1]; 339.37 K, m1 = 0.08)?
**A.** 23 ± 11 mPa·s

**Q.** What about the viscosity ([1]; 339.37 K, m1 = 0.17) of the same compound?
**A.** 24 mPa·s

**Q.** And the viscosity ([1]; 339.37 K, m1 = 0.35)?
**A.** 25 ± 12 mPa·s

**Q.** What about the viscosity ([1]; 339.37 K, m1 = 0.7) of the same compound?
**A.** 26 mPa·s

**Q.** What about the viscosity ([1]; 339.37 K, m1 = 1.41) of the same compound?
**A.** 28 mPa·s

**Q.** And the viscosity ([1]; 367.49 K, m1 = 0.08)?
**A.** 12 mPa·s

**Q.** And the viscosity ([1]; 367.49 K, m1 = 0.17)?
**A.** 12 mPa·s

**Q.** And the viscosity ([1]; 367.49 K, m1 = 0.35)?
**A.** 13 ± 6 mPa·s

**Q.** And the viscosity ([1]; 367.49 K, m1 = 0.7)?
**A.** 14 mPa·s

**Q.** What about the viscosity ([1]; 367.49 K, m1 = 1.41) of the same compound?
**A.** 15 ± 7 mPa·s

**Q.** What about the electrical conductivity ([1]; 373.15 K, m1 = 0.08) of the same compound?
**A.** 1.73 ± 0.07 S/m

**Q.** What about the electrical conductivity ([1]; 373.15 K, m1 = 0.17) of the same compound?
**A.** 1.66 ± 0.07 S/m

**Q.** What about the electrical conductivity ([1]; 373.15 K, m1 = 0.35) of the same compound?
**A.** 1.65 ± 0.07 S/m

**Q.** What about the electrical conductivity ([1]; 373.15 K, m1 = 0.7) of the same compound?
**A.** 1.56 ± 0.06 S/m

**Q.** What about the electrical conductivity ([1]; 373.15 K, m1 = 1.41) of the same compound?
**A.** 1.37 ± 0.06 S/m

**Q.** What about the viscosity ([1]; 403.15 K, m1 = 0.08) of the same compound?
**A.** 7 mPa·s

**Q.** And the viscosity ([1]; 403.15 K, m1 = 0.17)?
**A.** 7 mPa·s

**Q.** And the viscosity ([1]; 403.15 K, m1 = 0.35)?
**A.** 7 mPa·s

**Q.** And the viscosity ([1]; 403.15 K, m1 = 0.7)?
**A.** 8 mPa·s

**Q.** What about the viscosity ([1]; 403.15 K, m1 = 1.41) of the same compound?
**A.** 8 mPa·s

**Q.** And the electrical conductivity ([1]; 413.15 K, m1 = 0.08)?
**A.** 2.94 ± 0.12 S/m

**Q.** And the electrical conductivity ([1]; 413.15 K, m1 = 0.17)?
**A.** 2.81 ± 0.11 S/m

**Q.** And the electrical conductivity ([1]; 413.15 K, m1 = 0.35)?
**A.** 2.78 ± 0.11 S/m

**Q.** What about the electrical conductivity ([1]; 413.15 K, m1 = 0.7) of the same compound?
**A.** 2.66 ± 0.11 S/m

**Q.** What about the electrical conductivity ([1]; 413.15 K, m1 = 1.41) of the same compound?
**A.** 2.27 ± 0.09 S/m

**Q.** And the electrical conductivity ([1]; 453.15 K, m1 = 0.08)?
**A.** 4.23 ± 0.17 S/m

**Q.** What about the electrical conductivity ([1]; 453.15 K, m1 = 0.17) of the same compound?
**A.** 4.16 ± 0.17 S/m

**Q.** What about the electrical conductivity ([1]; 453.15 K, m1 = 0.35) of the same compound?
**A.** 4.13 ± 0.17 S/m

**Q.** What about the electrical conductivity ([1]; 453.15 K, m1 = 0.7) of the same compound?
**A.** 3.84 ± 0.15 S/m

**Q.** What about the electrical conductivity ([1]; 453.15 K, m1 = 1.41) of the same compound?
**A.** 3.44 ± 0.14 S/m

**Q.** With `CCCC[N+]1(C)CCCC1.O=S(=O)([N-]S(=O)(=O)C(F)(F)F)C(F)(F)F` + [F][Ta]([F])([F])([F])[F] as the compound, how does the viscosity ([1]; 293.15 K, m2 = 0) read?
**A.** 102 mPa·s

**Q.** What about the electrical conductivity ([1]; 293.15 K, m2 = 0) of the same compound?
**A.** 0.25 ± 0.01 S/m

**Q.** And the viscosity ([1]; 303.15 K, m2 = 0)?
**A.** 67 ± 33 mPa·s

**Q.** And the viscosity ([1]; 312.15 K, m2 = 0)?
**A.** 47 ± 23 mPa·s

**Q.** And the viscosity ([1]; 312.17 K, m2 = 0)?
**A.** 47 ± 23 mPa·s

**Q.** And the electrical conductivity ([1]; 313.15 K, m2 = 0)?
**A.** 0.47 ± 0.02 S/m

**Q.** And the viscosity ([1]; 321.22 K, m2 = 0)?
**A.** 36 mPa·s

**Q.** And the electrical conductivity ([1]; 323.15 K, m2 = 0)?
**A.** 0.63 ± 0.03 S/m

**Q.** What about the viscosity ([1]; 330.29 K, m2 = 0) of the same compound?
**A.** 28 mPa·s

**Q.** And the electrical conductivity ([1]; 333.15 K, m2 = 0)?
**A.** 0.8 ± 0.03 S/m

**Q.** And the viscosity ([1]; 339.37 K, m2 = 0)?
**A.** 22 mPa·s

**Q.** What about the electrical conductivity ([1]; 343.15 K, m2 = 0) of the same compound?
**A.** 1.01 ± 0.04 S/m

**Q.** What about the viscosity ([1]; 348.44 K, m2 = 0) of the same compound?
**A.** 17 ± 8 mPa·s

**Q.** What about the electrical conductivity ([1]; 353.15 K, m2 = 0) of the same compound?
**A.** 1.21 ± 0.05 S/m

**Q.** And the viscosity ([1]; 357.52 K, m2 = 0)?
**A.** 14 mPa·s

**Q.** What about the viscosity ([1]; 367.49 K, m2 = 0) of the same compound?
**A.** 11 ± 5 mPa·s

**Q.** And the electrical conductivity ([1]; 373.15 K, m2 = 0)?
**A.** 1.74 ± 0.07 S/m

**Q.** What about the viscosity ([1]; 377.46 K, m2 = 0) of the same compound?
**A.** 10 mPa·s

**Q.** And the viscosity ([1]; 386.53 K, m2 = 0)?
**A.** 8 mPa·s

**Q.** What about the electrical conductivity ([1]; 393.15 K, m2 = 0) of the same compound?
**A.** 2.3 ± 0.09 S/m

**Q.** And the viscosity ([1]; 394.73 K, m2 = 0)?
**A.** 7 mPa·s

**Q.** And the viscosity ([1]; 403.15 K, m2 = 0)?
**A.** 6 mPa·s

**Q.** And the electrical conductivity ([1]; 413.15 K, m2 = 0)?
**A.** 2.92 ± 0.12 S/m

**Q.** And the electrical conductivity ([1]; 433.15 K, m2 = 0)?
**A.** 3.61 ± 0.14 S/m

**Q.** What about the electrical conductivity ([1]; 453.15 K, m2 = 0) of the same compound?
**A.** 4.33 ± 0.18 S/m

**Q.** What does the source list for `CCCC[N+]1(C)CCCC1.O=S(=O)([N-]S(=O)(=O)C(F)(F)F)C(F)(F)F`?
**A.** viscosity ([2]; 293.15 K): 102 ± 4 mPa·s; electrical conductivity ([2]; 293.15 K): 0.25 ± 0.01 S/m; viscosity ([2]; 303.15 K): 67 ± 3 mPa·s; viscosity ([2]; 312.15 K): 47 ± 2 mPa·s; viscosity ([2]; 312.17 K): 47 ± 2 mPa·s; electrical conductivity ([2]; 313.15 K): 0.47 ± 0.02 S/m; viscosity ([2]; 321.22 K): 36 ± 2 mPa·s; electrical conductivity ([2]; 323.15 K): 0.63 ± 0.03 S/m; viscosity ([2]; 330.29 K): 28 ± 1 mPa·s; electrical conductivity ([2]; 333.15 K): 0.8 ± 0.03 S/m; viscosity ([2]; 339.37 K): 22 ± 1 mPa·s; electrical conductivity ([2]; 343.15 K): 1.01 ± 0.04 S/m; viscosity ([2]; 348.44 K): 17 ± 1 mPa·s; electrical conductivity ([2]; 353.15 K): 1.21 ± 0.05 S/m; viscosity ([2]; 357.52 K): 14 ± 1 mPa·s; viscosity ([2]; 367.49 K): 11 ± 1 mPa·s; electrical conductivity ([2]; 373.15 K): 1.74 ± 0.07 S/m; viscosity ([2]; 377.46 K): 10 ± 1 mPa·s; viscosity ([2]; 386.53 K): 8 ± 1 mPa·s; electrical conductivity ([2]; 393.15 K): 2.3 ± 0.09 S/m; viscosity ([2]; 394.73 K): 7 ± 1 mPa·s; viscosity ([2]; 403.15 K): 6 ± 1 mPa·s; electrical conductivity ([2]; 413.15 K): 2.92 ± 0.12 S/m; electrical conductivity ([2]; 433.15 K): 3.61 ± 0.14 S/m; electrical conductivity ([2]; 453.15 K): 4.33 ± 0.17 S/m; Normal melting temperature ([2]; Crystal, DTA): -22 ± 1 °C
